# From PubChem BioAssay AID2305 (GlaxoSmithKline (GSK), 2010)
# System: P. falciparum 3D7 growth, pLDH absorbance
# Assay: blood-stage malaria parasite growth potency – strain 3D7, dose response (AID 2305)
row,SMILES,IC50 [nM]
1,Clc1ccc2c(NCCNc3ccnc4cc(Cl)ccc34)ccnc2c1,400
2,COc1ccc2c(c1)CCCC2C(C)NCC(O)c1cccc(C(F)(F)F)c1 (stereo not drawn),350
3,CN1CCN(c2ccnc3ccc(NC(=O)Nc4ccc5c(c4)CCCC5=O)cc23)CC1,130
4,CN(CCCCCNC(=O)/C=C/c1ccc(Cl)c(Cl)c1)CCc1c[nH]c2ccccc12,870
5,CN(C)C(CNC(=O)c1cc(-c2ccncc2)c(-c2ccc(NC(=O)Nc3cccc(Cl)c3)cc2)o1)c1ccccc1 (stereo not drawn),180
6,O=C(/C=C/c1ccc(Cl)c(Cl)c1)NCCCCCN1CCC(NC(=O)Nc2cccc(Cl)c2)CC1,750
7,FC(F)(F)c1ccc(CNC2CCN(CC3CCCCC3)CC2)cc1,930
8,CCOC(=O)c1ccc(NC(=O)NC2CCN(CCCCCNC(=O)/C=C/c3ccc(Cl)c(Cl)c3)C2)cc1 (stereo not drawn),490
9,C=C[C@H]1CN(CCCCCCC)CC[C@H]1CC(O)Cc1ccnc2cc(O)c(OC)cc12 (stereo partly drawn),820
10,Cc1ccc(Nc2nccc(Nc3ccc4c(C)[nH]nc4c3)n2)cc1F,780
11,O=C(/C=C/c1ccc(Cl)c(Cl)c1)NCCCCCN1CC[C@H](c2c[nH]c3ccccc23)[C@H](O)C1,820
12,COc1ccc(NC(=O)[C@H](CC(C)C)Nc2cc(C)nc(NCc3ccccc3C)n2)cc1,890
13,CCCCCCCN1CC[C@@H](CCCc2ccnc3ccc(OCCC4CCNCC4)cc23)[C@@H](CC)C1,610
14,Cc1ccc(C(=O)Cn2nc(-c3ccc(C)c(S(=O)(=O)N4CCCCC4)c3)ccc2=O)cc1,330
15,O=C(Nc1cccc(-c2ccc(-c3nc4ccc(C(F)(F)F)cc4[nH]3)cc2)c1)Nc1ccc(F)c(F)c1F,260
16,O=C(NC1CCN(Cc2ccccc2)CC1)c1cc(C(=O)NC2CCN(Cc3ccccc3)CC2)cc(C(=O)NC2CCN(Cc3ccccc3)CC2)c1,1040
17,Cc1cccc2[nH]c(-c3ccc(-c4cccc(NC(=O)c5cccc(C(N)=O)c5)c4)cc3)nc12,1130
18,CN(c1ccc2c(c1)nc(NCc1ccc(F)cc1)n2C)c1ccnc(Nc2ccc(CS(C)(=O)=O)cc2)n1,830
19,O=C(/C=C/c1ccc(Cl)c(Cl)c1)NCCCCCN1CCC(C(=O)Nc2ccc(F)c(Cl)c2)CC1,650
20,c1cc2c3c(cccc3c1)NC(CCCCCCCCC1=Nc3cccc4cccc(c34)N1)=N2,830
21,COc1cccc(CNC[C@@H](O)[C@H](Cc2ccccc2)NC(=O)c2cc(N3CCCC3=O)c3[nH]cc(C(C)C)c3c2)c1,530
22,CCC[C@@H]([C@@H](CC1CCC(C)CC1)C(=O)N[C@@H](CCCNc1ncccn1)C(=O)Nc1nccs1)N(O)C=O (stereo partly drawn),190
23,CC(C)N1CCC(NCc2ccc(-c3ccc(Cl)cc3)cc2)CC1,650
24,Cn1cnc2c(SCc3ccc(OCc4ccccc4)cc3)ncnc21,560

row,SMILES,IC50 [nM]
1,COc1cccc(CN2CCCN(Cc3cccc(NC(=O)c4ccc(Cl)c(Cl)c4)c3)CC2)c1,1460
2,O=C1NC(=O)C(c2ccc(Cl)cc2)=C1Nc1cccc(S(=O)(=O)C(F)(F)F)c1,740
3,CCN(CC)CCCNc1ncc2c(-c3ccc(NC(=O)Nc4cc(C(F)(F)F)ccc4F)c(F)c3)nn(C)c2n1,270
4,Cn1ccnc1CCC(=O)Nc1ccc(Cl)cc1C(=O)Nc1ccc(Cl)cc1,1560
5,O=C(NC1CCN(Cc2ccc3c(c2)OCCO3)CC1)c1ccc(-c2cccc(Cl)c2)s1,1910
6,CCOc1ccccc1CCNCC1CCN(CC2CCCCC2)CC1,780
7,N#Cc1cncc(-c2nc3c(N4CCC(N5CCCC5)CC4)cccc3n2CCNCc2ccccc2)c1,870
8,COc1ccc(CN2CCN(CCOC(c3ccc(F)cc3)c3ccc(F)cc3)CC2)c(O)c1,730
9,OC(CNCc1cccc(Oc2ccc(Cl)cc2)c1)c1cc(C(F)(F)F)cc(C(F)(F)F)c1 (stereo not drawn),260
10,O=C(/C=C/c1ccc(Cl)cc1)NCCCCCN1CCCN(C(=O)Nc2ccc(F)c(Cl)c2)CC1,780
11,O=C(Nc1cccc(-c2ccc(-c3nc4ccc(C(F)(F)F)cc4[nH]3)s2)c1)c1ccncc1,680
12,Cc1ccccc1CCNC(=O)c1cnc(N2CCN(c3ccncc3)CC2)c(Cl)c1,1060
13,O=S(=O)(NCCN1CCCC1)c1ccc(-c2cccc(CNCCc3cccs3)c2)cc1,930
14,Nc1c2ccccc2nc2cc(Cl)ccc12,710
15,COc1ccc(C[C@H](N)C(=O)N[C@H]2[C@@H](O)[C@H](n3cnc4c(N(C)C)ncnc43)O[C@@H]2CO)cc1,300
16,N#Cc1cccc(Nc2cc(C(F)(F)F)nc(Nc3ccccc3)n2)c1,1440
17,O=C1CCCN1CCCNCc1ccc(-c2cccc(-c3nc4ccccc4[nH]3)c2)cc1,1020
18,COc1ccc(NC(=O)Nc2ccc(C)c(-c3ccc(C(=O)Nc4ccncc4)cc3)c2)cc1,570
19,O=C(Nc1ccc(N2CCNCC2)cc1)c1ccn2ncc(-c3cccc(Cl)c3)c2n1,920
20,Cn1c(NC2=NC3(c4ccccn4)N=C(Nc4nc5ccccc5n4C)NC3(c3ccccn3)N2)nc2ccccc21 (stereo not drawn),1040
21,Oc1c(C=Nn2cnnc2)sc2ccccc12,910
22,CN1CCC(NCc2ccc(-c3ccc(S(=O)(=O)NCc4ccccc4)s3)cc2)CC1,770
23,CN1CCC[C@@H](Oc2cc3c(cc2Br)CCN3C(=O)Nc2ccc(-c3ccncc3)c(Cl)c2)C1,620
24,Cn1nc(-c2ccc(S(=O)(=O)N3CCC(CN4CCC(c5c[nH]c6ccccc56)CC4)CC3)s2)cc1C(F)(F)F,1090

row,SMILES,IC50 [nM]
1,CCOc1ccc(-c2nonc2NC(=O)c2ccccc2)cc1OCC,260
2,C[C@H](NC(=O)c1c(CN2CCC(NC(=O)CC(C)(C)C)CC2)c(-c2cccs2)nc2ccccc12)C1CCCCC1,950
3,CCOc1cc(Cc2cnc(N)nc2N)cc(OCC)c1OCCCCC(=O)OC,40
4,Cc1[nH]c(C)c(-c2ccc(OCc3cc(C(F)(F)F)cc(C(F)(F)F)c3)nc2)c(=O)c1Br,150
5,COc1ccc(O)c(C(=O)c2cc(C(=O)NC3CCCCC3)c(=O)n(C3CCCCC3)c2)c1,660
6,CCN1CCN(CC(O)CNC(=O)Nc2ccc(Cl)cc2)CC1 (stereo not drawn),150
7,CCOc1cccc(C2c3c(oc4ccccc4c3=O)C(=O)N2CCN(CC)CC)c1 (stereo not drawn),750
8,CN1CCC(N(Cc2ccc(-c3ccc(C(F)(F)F)cc3)cc2)C(=O)Cn2cc(Cc3cnn(C)c3)c(=O)nc2SCc2cccc(F)c2F)CC1,930
9,CC(C)(C)c1ccc(CN2CCCCC(NC(=O)c3cc(-c4ccccc4Cl)cs3)C2)cc1 (stereo not drawn),1120
10,O=C(NCc1cccc2ccccc12)[C@@H]1CCCN1C(=O)c1ccc(O)c(-c2ccc(Cl)c(Cl)c2)c1,950
11,Cc1ccccc1-c1cc(=O)c2cc(NC(=O)c3cccs3)ccc2o1,220
12,COc1cccc(-c2csc(C(=O)NCC3CCN(Cc4ccc(C(C)C)cc4)C3)c2)c1 (stereo not drawn),1390
13,CC1=CC(=O)[C@@H](O)[C@]2(C)[C@H]3[C@@]4(O)OC[C@@]35[C@@H](C[C@@H]12)OC(=O)C[C@H]5[C@@H](C)[C@H]4O,350
14,CCCCN=C(N)Nc1ccc(OCCCOc2ccc(NC(N)=NCCCC)cc2)cc1,160
15,Cc1cc(NC(=O)Nc2ccc3nc(C)oc3c2)c2cc(Cl)ccc2n1,1120
16,COc1nc2c(CCN3CC[C@@H](NCc4cc(C#N)c5c(c4)CCO5)[C@@H](O)C3)ccnc2cc1F,1030
17,FC(F)(F)c1ccc2nc(-c3ccc(-c4cccc(CNCC5CCCO5)c4)s3)[nH]c2c1 (stereo not drawn),370
18,O=C(Nc1ccc(C(=O)N2CCN(CCN3CCN(c4cccc(C(F)(F)F)c4)CC3)CC2)cc1)c1ccc(C(F)(F)F)cc1,690
19,CC[C@H]1CN2CCc3cc(OC)c(OC)cc3[C@@H]2C[C@@H]1CC1=NCCc2c1[nH]c1ccc(OCc3ccccc3)cc21,770
20,CCC(=O)N(c1ccccc1)C1CCN(CCCC(NC(=O)c2cc(C(F)(F)F)cc(C(F)(F)F)c2)c2ccc(Cl)c(Cl)c2)CC1 (stereo not drawn),800
21,c1ccc(Oc2ccc(Nc3ccnc4cc(-c5csc(CNCCN6CCOCC6)n5)ccc34)cc2)cc1,710
22,CC(=O)Nc1ccccc1OCc1cc2cc(C(=O)N3CCC(N4C(=O)OCc5ccccc54)CC3)ccc2o1,240
23,FC(F)(F)c1ccc2c(C=Cc3ccncc3)c[nH]c2c1,710
24,Brc1ccc(Nc2nc3ccccc3nc2Nc2ccc(Br)cc2)cc1,780

row,SMILES,IC50 [nM]
1,Cc1[nH]c2ccc(O)cc2c1C1CCN(CC2CCC(NC(=O)/C=C/c3ccc(Cl)c(Cl)c3)CC2)CC1 (stereo not drawn),760
2,O=C(/C=C/c1ccc(Cl)c(Cl)c1)NC1CCC(CN2CCC(c3c[nH]c4ccncc34)CC2)CC1 (stereo not drawn),400
3,CC(Cc1ccc(OCCN2CCN(c3cccc(Cl)c3)CC2)cc1)NCC(O)c1cccc(Cl)c1 (stereo not drawn),1210
4,COc1ccc2ncc(F)c(CCN3C[C@H](CNCc4ccc5ccccc5c4)[C@H](O)C3)c2n1,500
5,CC[C@@]1(O)C(=O)OCc2c1cc1n(c2=O)Cc2c-1nc1cc3c(cc1c2CN1CCOCC1)OCO3,960
6,CN1CCC(NCc2ccc(-c3cccc(S(=O)(=O)NCc4ccccc4)c3)cc2)CC1,320
7,CCCCCCCSc1ccc(CC(C)NCC(O)c2cccc(Cl)c2)cc1 (stereo not drawn),180
8,COc1ccccc1N1CCN(CCCCNC(=O)c2ccc(NC(=O)c3ccc(C(F)(F)F)cc3)cc2)CC1,300
9,O=C(NCc1ccco1)c1ccc(CN2CCN(C(c3ccccc3)c3ccccc3)CC2)cc1,790
10,CN(C)CCCOc1ccc(CCCCc2ccc(Cl)cc2C(=O)c2ccccc2)cc1,1030
11,COc1ccc(-c2cc(C(=O)Nc3ccc(CCCN(C)Cc4ccc(OC)c(OC)c4)cc3)c3ccccc3n2)cc1,700
12,COc1c(C2CCN(CCN3CCC(CNC(=O)c4ccc(-c5ccc(C#N)cc5)cc4)CC3)CC2)ccc2c1CCCC2,460
13,Cc1cc(SC(C)(C)C)cc2c(Cl)c(C(N)=O)cnc12,1090
14,CCN(CC)c1ccc2nc(N)nc(N)c2c1,70
15,COc1ccc2c(c1)ncn2-c1cc(OCc2ccncc2Br)c(C(N)=O)s1,610
16,COc1cc(C2CCN(CCCCNC(=O)c3ccc(NC(=O)c4ccc(Cl)c(Cl)c4)cc3)CC2)ccc1OC(C)C,320
17,Nc1nc(N)c2cc(N(Cc3ccccc3)Cc3ccccc3)ccc2n1,610
18,O=C1NC(c2ccccc2)C2(CCN(CC(O)COc3cccc4ncccc34)CC2)O1 (stereo not drawn),740
19,CC(C)NC(C)(C)CN(Cc1ccc(-c2ccc(C(F)(F)F)cc2)cc1)C(=O)Cn1c(CCc2cccc(F)c2F)nc(=O)c2ccccc21,910
20,COc1ccc2nccc([C@@H](O)CN3CCC(NC(=O)C(c4cccs4)N4CCN(c5ccc(F)cc5)CC4)CC3)c2c1 (stereo partly drawn),820
21,CS(=O)(=O)c1cccc(-c2cnc3[nH]cc(-c4cccc(CCN)c4)c3c2)c1,1560
